Experimental data reported in ChEMBL document CHEMBL1201862, “PubChem BioAssay data set” (2004).
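Cultured in 96-well plates, cells were exposed to test compound for 48 hours across five concentrations. GI50: concentration for 50% inhibition of growth.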 The source made the active and inactive calls. Cut-off read from the data, not from the text of the source: active = GI50 up to about 1.1 µM and inactive = higher.

Assays:
Assay in all cases: NCI-60 cell line screen, 48 h
[1] = test system: LOX IMVI
[2] = test system: Malme-3M
[3] = test system: SF-539
[4] = test system: ACHN
[5] = test system: UACC-62
[6] = test system: TK-10
[7] = test system: UO-31
[8] = test system: SNB-75
[9] = test system: SR
[10] = test system: OVCAR-4
[11] = test system: HCC 2998
[12] = test system: 786-0
[13] = test system: SF-295
[14] = test system: CAKI-1
[15] = test system: SK-MEL-2
[16] = test system: M14
[17] = test system: SK-MEL-5
[18] = test system: HL-60
[19] = test system: HT-29
[20] = test system: CCRF-CEM

With `CC1NC(=O)C2=C1C(N)=NC(=O)C2` (stereo not drawn) the GI50 [1] was > 100 µM (inactive), the GI50 [2] was > 100 µM (inactive) and the GI50 [3] was > 100 µM (inactive). For the same molecule, the GI50 [4] was > 100 µM (inactive), the GI50 [5] was > 100 µM (inactive) and the GI50 [6] was > 100 µM (inactive). For the same molecule, the GI50 [7] was > 100 µM (inactive), the GI50 [8] was > 100 µM (inactive) and the GI50 [9] was > 100 µM (inactive). The GI50 [10] was > 100 µM (inactive), the GI50 [11] was > 100 µM (inactive) and the GI50 [12] was > 100 µM (inactive). The GI50 [13] was > 100 µM (inactive), the GI50 [14] was > 100 µM (inactive) and the GI50 [15] was > 100 µM (inactive). The GI50 [16] was > 100 µM (inactive) and the GI50 [17] was > 100 µM (inactive).

With `CC/C=C/C[C@H](O[Si](C)(C)C(C)(C)C)[C@H]1C[C@H]2O[C@H]([C@@H](O)C#C[Si](C)(C)C)C[C@H]2O1` the GI50 [1] was 10.4 µM (inactive), the GI50 [2] was 11.9 µM (inactive) and the GI50 [4] was 15.2 µM (inactive). For the same molecule, the GI50 [5] was 17.7 µM (inactive), the GI50 [18] was 3.84 µM (inactive) and the GI50 [6] was 15.2 µM (inactive). The GI50 [7] was 14.2 µM (inactive), the GI50 [8] was 16.3 µM (inactive) and the GI50 [9] was 2.31 µM (inactive). For the same molecule, the GI50 [10] was 5.85 µM (inactive), the GI50 [19] was 11.9 µM (inactive) and the GI50 [11] was 15.9 µM (inactive). For the same molecule, the GI50 [20] was 21.5 µM (inactive), the GI50 [12] was 14.7 µM (inactive) and the GI50 [13] was 14.3 µM (inactive). For the same molecule, the GI50 [14] was 11.3 µM (inactive), the GI50 [15] was 15.5 µM (inactive) and the GI50 [16] was 12.1 µM (inactive). For the same molecule, the GI50 [17] was 6.78 µM (inactive).

With `CC1(C)C2CCC1(C)[C@H](O)[C@H]2Nc1cc(C(F)(F)F)cc(C(F)(F)F)c1` (stereo partly drawn) the GI50 [1] was 3 µM (inactive), the GI50 [2] was 3.27 µM (inactive) and the GI50 [3] was 4.66 µM (inactive). For the same molecule, the GI50 [4] was > 100 µM (inactive), the GI50 [5] was > 100 µM (inactive) and the GI50 [6] was 3.15 µM (inactive). The GI50 [7] was 3.51 µM (inactive), the GI50 [8] was 0.0252 µM (active) and the GI50 [9] was 2.95 µM (inactive). The GI50 [10] was 5.12 µM (inactive), the GI50 [19] was 3.32 µM (inactive) and the GI50 [11] was 3.38 µM (inactive). The GI50 [12] was 3.85 µM (inactive), the GI50 [13] was 2.37 µM (inactive) and the GI50 [14] was 3.76 µM (inactive). The GI50 [15] was 2.35 µM (inactive), the GI50 [16] was 4.06 µM (inactive) and the GI50 [17] was 5.38 µM (inactive).

`N#Cc1ccccc1C(Cl)(Cl)c1cnccn1` was tested, and the GI50 [1] was 24.2 µM (inactive), the GI50 [3] was 32.4 µM (inactive) and the GI50 [4] was 59.6 µM (inactive). The GI50 [5] was 30.5 µM (inactive), the GI50 [18] was 28.6 µM (inactive) and the GI50 [6] was > 100 µM (inactive). For the same molecule, the GI50 [7] was 33.3 µM (inactive), the GI50 [9] was 34 µM (inactive) and the GI50 [10] was > 100 µM (inactive). The GI50 [19] was 57.4 µM (inactive), the GI50 [11] was 32.4 µM (inactive) and the GI50 [20] was 20 µM (inactive). For the same molecule, the GI50 [12] was 14.6 µM (inactive), the GI50 [13] was 47 µM (inactive) and the GI50 [14] was > 100 µM (inactive). For the same molecule, the GI50 [15] was 67 µM (inactive) and the GI50 [17] was 20.4 µM (inactive).

With `COc1cccc(CCn2c(N)c(C#N)c3ccc([N+](=O)[O-])cc3c2=O)c1` the GI50 [1] was > 46.5 µM (inactive), the GI50 [3] was > 10 µM (inactive) and the GI50 [4] was > 46.5 µM (inactive). For the same molecule, the GI50 [5] was > 31.6 µM (inactive), the GI50 [18] was 3.78 µM (inactive) and the GI50 [6] was > 46.5 µM (inactive). For the same molecule, the GI50 [7] was > 46.5 µM (inactive), the GI50 [8] was > 46.5 µM (inactive) and the GI50 [9] was 0.073 µM (active). For the same molecule, the GI50 [10] was > 84.7 µM (inactive), the GI50 [19] was > 31.6 µM (inactive) and the GI50 [11] was > 46.5 µM (inactive). For the same molecule, the GI50 [20] was 4.35 µM (inactive), the GI50 [12] was > 46.5 µM (inactive) and the GI50 [13] was > 31.6 µM (inactive). For the same molecule, the GI50 [14] was > 46.5 µM (inactive), the GI50 [15] was > 46.5 µM (inactive) and the GI50 [16] was > 31.6 µM (inactive). For the same molecule, the GI50 [17] was > 100 µM (inactive).

In the case of `CC1=CCC2CC1C(C(=O)c1c[nH]c3ccccc13)=NC2(C)C` (stereo not drawn), the GI50 [1] is reported as 80.9 µM (inactive), the GI50 [2] is reported as > 100 µM (inactive) and the GI50 [3] is reported as > 100 µM (inactive). The GI50 [4] was 73.6 µM (inactive), the GI50 [5] was 25.2 µM (inactive) and the GI50 [18] was 20.8 µM (inactive). For the same molecule, the GI50 [7] was 48.8 µM (inactive), the GI50 [9] was 4.5 µM (inactive) and the GI50 [10] was 40.3 µM (inactive). The GI50 [19] was 51.1 µM (inactive), the GI50 [11] was > 100 µM (inactive) and the GI50 [20] was 22.4 µM (inactive). For the same molecule, the GI50 [12] was 81.1 µM (inactive), the GI50 [14] was > 100 µM (inactive) and the GI50 [16] was 41.5 µM (inactive). The GI50 [17] was 37.6 µM (inactive).

In the case of `CCCc1[nH]c2ccccc2c1-c1c(CCC)[nH]c2ccccc12`, the GI50 [1] is reported as 4.35 µM (inactive), the GI50 [2] is reported as 16 µM (inactive) and the GI50 [3] is reported as 8.36 µM (inactive). For the same molecule, the GI50 [4] was 16.9 µM (inactive), the GI50 [5] was 13.3 µM (inactive) and the GI50 [6] was 21.6 µM (inactive). The GI50 [7] was 16.7 µM (inactive), the GI50 [8] was 19.4 µM (inactive) and the GI50 [9] was 19 µM (inactive). For the same molecule, the GI50 [10] was 21.5 µM (inactive), the GI50 [19] was 8.61 µM (inactive) and the GI50 [11] was 22.9 µM (inactive). For the same molecule, the GI50 [20] was 8.26 µM (inactive), the GI50 [12] was 15.5 µM (inactive) and the GI50 [13] was 15.7 µM (inactive). The GI50 [14] was 18.6 µM (inactive), the GI50 [15] was 14.2 µM (inactive) and the GI50 [16] was 12.6 µM (inactive). The GI50 [17] was 10.2 µM (inactive).

With `NCCCCNCCCNC(=O)c1nc(-c2nc(CCN)sc2Cl)sc1Cl` the GI50 [2] was 58.6 µM (inactive), the GI50 [3] was 48.8 µM (inactive) and the GI50 [4] was > 100 µM (inactive). The GI50 [5] was > 100 µM (inactive), the GI50 [18] was > 100 µM (inactive) and the GI50 [6] was > 100 µM (inactive). For the same molecule, the GI50 [7] was > 100 µM (inactive), the GI50 [8] was 72.9 µM (inactive) and the GI50 [9] was 6.87 µM (inactive). The GI50 [10] was 29.9 µM (inactive), the GI50 [19] was > 100 µM (inactive) and the GI50 [11] was > 100 µM (inactive). The GI50 [20] was 89.5 µM (inactive), the GI50 [13] was 59.8 µM (inactive) and the GI50 [14] was > 100 µM (inactive). The GI50 [16] was 70.1 µM (inactive) and the GI50 [17] was > 100 µM (inactive).

With `Cc1nc2ccccc2cc1C[N+]12CN3CN(CN(C3)C1)C2` the GI50 [1] was 14.7 µM (inactive), the GI50 [2] was 17.3 µM (inactive) and the GI50 [3] was 14.2 µM (inactive). For the same molecule, the GI50 [4] was 17.1 µM (inactive), the GI50 [5] was 17.2 µM (inactive) and the GI50 [6] was 24.9 µM (inactive). The GI50 [7] was 23.6 µM (inactive), the GI50 [8] was 17.9 µM (inactive) and the GI50 [9] was 19 µM (inactive). The GI50 [10] was 22.3 µM (inactive), the GI50 [19] was 15.7 µM (inactive) and the GI50 [11] was 17.1 µM (inactive). For the same molecule, the GI50 [20] was 0.962 µM (active), the GI50 [12] was 11.5 µM (inactive) and the GI50 [13] was 22.9 µM (inactive). For the same molecule, the GI50 [14] was 27.5 µM (inactive), the GI50 [15] was 18.6 µM (inactive) and the GI50 [16] was 18.5 µM (inactive). The GI50 [17] was 18.4 µM (inactive).

For `O=C1NC(=O)C(CC2CCCCCCCCCCC2=O)C(=O)N1` (stereo not drawn), the GI50 [1] was > 100 µM (inactive), the GI50 [3] was > 100 µM (inactive) and the GI50 [4] was > 100 µM (inactive). The GI50 [5] was > 100 µM (inactive), the GI50 [18] was 4.94 µM (inactive) and the GI50 [6] was > 100 µM (inactive). For the same molecule, the GI50 [7] was 74 µM (inactive), the GI50 [8] was > 100 µM (inactive) and the GI50 [9] was 0.041 µM (active). For the same molecule, the GI50 [10] was > 100 µM (inactive), the GI50 [19] was 74 µM (inactive) and the GI50 [11] was > 100 µM (inactive). The GI50 [20] was 1.2 µM (inactive), the GI50 [12] was > 100 µM (inactive) and the GI50 [13] was > 100 µM (inactive). The GI50 [14] was > 100 µM (inactive), the GI50 [15] was > 100 µM (inactive) and the GI50 [16] was > 100 µM (inactive). The GI50 [17] was > 100 µM (inactive).

In the case of `COc1ccc(-c2oc3cc(-c4cc5oc(-c6ccc(OC)cc6)c(-c6ccc(OC)cc6)c5cc4OC)c(OC)cc3c2-c2ccc(OC)cc2)cc1`, the GI50 [1] is reported as > 100 µM (inactive), the GI50 [2] is reported as > 100 µM (inactive) and the GI50 [3] is reported as > 100 µM (inactive). The GI50 [4] was > 100 µM (inactive), the GI50 [5] was > 100 µM (inactive) and the GI50 [6] was > 100 µM (inactive). The GI50 [7] was > 100 µM (inactive), the GI50 [8] was > 100 µM (inactive) and the GI50 [9] was > 100 µM (inactive). For the same molecule, the GI50 [10] was > 100 µM (inactive), the GI50 [19] was > 100 µM (inactive) and the GI50 [11] was > 100 µM (inactive). For the same molecule, the GI50 [20] was > 100 µM (inactive), the GI50 [12] was > 100 µM (inactive) and the GI50 [13] was > 100 µM (inactive). For the same molecule, the GI50 [14] was > 100 µM (inactive), the GI50 [16] was > 100 µM (inactive) and the GI50 [17] was > 100 µM (inactive).
